Reference: patent US20050282743A1, “Molecular interactions in cells” (Arbor Vita Corporation, priority 2001, published 2005)
Peptide text beside a SMILES is read from it. * marks the point of attachment. Biotin = O=C1N[C@H]2[C@H](CS[C@H]2CCCCC(=O)*)N1

Tests used:
Experiment in all cases: G' assay (10 uM PL peptide), results of TABLE 7 and TABLE 12
Format in all cases: binding
[1] = target: T1, PDZ protein (GST-PDZ fusion) (Homo sapiens, UniProt O14908); details: PDZ TAX IP2, PDZ Domain 1
T1 construct: made in house; host or cells: E. coli (DH5alpha, BL21 or JM109)
T1 sequence (O14908 1-333): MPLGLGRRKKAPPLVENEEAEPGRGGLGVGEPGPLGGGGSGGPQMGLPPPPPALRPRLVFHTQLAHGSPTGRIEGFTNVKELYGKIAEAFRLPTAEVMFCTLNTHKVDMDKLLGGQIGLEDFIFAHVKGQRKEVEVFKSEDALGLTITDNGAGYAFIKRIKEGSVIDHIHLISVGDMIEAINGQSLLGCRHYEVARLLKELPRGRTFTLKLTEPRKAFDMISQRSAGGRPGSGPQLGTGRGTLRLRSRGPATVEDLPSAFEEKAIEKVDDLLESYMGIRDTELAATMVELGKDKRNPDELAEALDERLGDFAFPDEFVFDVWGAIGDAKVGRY
Outline: (§1)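 Binding classes derive from A450 nm of bound biotin-tagged PL peptide. A score of 5 needs A450 above 4 in more than two repeats.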

[2] = target: T2, PDZ protein (GST-PDZ fusion) (Homo sapiens, UniProt P29475); details: PDZ NOS1, PDZ Domain 1
T2 construct: made in house; host or cells: E. coli (DH5alpha, BL21 or JM109)
T2 sequence (P29475 whole entry, the tested form may be a part): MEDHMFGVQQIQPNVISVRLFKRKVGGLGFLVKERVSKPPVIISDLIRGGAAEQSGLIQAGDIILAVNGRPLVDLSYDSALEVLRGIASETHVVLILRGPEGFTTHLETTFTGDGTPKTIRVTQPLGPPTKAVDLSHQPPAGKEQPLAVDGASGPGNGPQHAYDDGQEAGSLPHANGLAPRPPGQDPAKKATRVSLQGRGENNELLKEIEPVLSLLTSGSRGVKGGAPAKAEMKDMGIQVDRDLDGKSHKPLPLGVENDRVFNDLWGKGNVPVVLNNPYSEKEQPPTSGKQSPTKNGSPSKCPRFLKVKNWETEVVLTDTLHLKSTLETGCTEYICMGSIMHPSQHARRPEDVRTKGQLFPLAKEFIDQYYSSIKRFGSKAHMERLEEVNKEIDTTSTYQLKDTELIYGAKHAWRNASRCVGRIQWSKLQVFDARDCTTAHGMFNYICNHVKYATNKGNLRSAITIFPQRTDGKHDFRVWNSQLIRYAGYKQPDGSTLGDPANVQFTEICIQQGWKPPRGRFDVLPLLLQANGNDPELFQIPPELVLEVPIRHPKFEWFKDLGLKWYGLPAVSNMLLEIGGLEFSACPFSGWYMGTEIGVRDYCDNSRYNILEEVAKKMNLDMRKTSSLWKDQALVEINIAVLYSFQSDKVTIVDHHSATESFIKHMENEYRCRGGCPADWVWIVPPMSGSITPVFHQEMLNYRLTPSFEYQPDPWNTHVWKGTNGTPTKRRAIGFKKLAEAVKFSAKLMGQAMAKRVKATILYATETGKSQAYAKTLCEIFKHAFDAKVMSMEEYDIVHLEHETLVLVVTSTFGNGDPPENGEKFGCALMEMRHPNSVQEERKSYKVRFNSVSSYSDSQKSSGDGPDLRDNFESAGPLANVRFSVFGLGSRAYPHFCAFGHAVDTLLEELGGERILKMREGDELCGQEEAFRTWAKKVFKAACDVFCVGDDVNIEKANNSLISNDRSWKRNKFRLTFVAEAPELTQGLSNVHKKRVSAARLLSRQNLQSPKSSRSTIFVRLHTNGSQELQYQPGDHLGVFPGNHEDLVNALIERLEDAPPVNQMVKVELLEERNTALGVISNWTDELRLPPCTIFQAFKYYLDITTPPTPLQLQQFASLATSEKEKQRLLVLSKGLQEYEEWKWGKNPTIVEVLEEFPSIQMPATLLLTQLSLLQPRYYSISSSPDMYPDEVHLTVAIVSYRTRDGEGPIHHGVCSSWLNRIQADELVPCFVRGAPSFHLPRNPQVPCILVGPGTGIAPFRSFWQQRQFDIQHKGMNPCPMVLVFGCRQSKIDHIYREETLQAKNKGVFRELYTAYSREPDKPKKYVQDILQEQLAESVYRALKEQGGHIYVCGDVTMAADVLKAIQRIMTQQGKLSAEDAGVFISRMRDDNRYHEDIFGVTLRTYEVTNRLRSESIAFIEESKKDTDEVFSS
Outline: as §1

[3] = target: T3, PDZ protein (GST-PDZ fusion) (Homo sapiens, UniProt P50479); details: PDZ LIM RIL, PDZ Domain 1
T3 construct: made in house; host or cells: E. coli (DH5alpha, BL21 or JM109)
T3 sequence (P50479 1-330): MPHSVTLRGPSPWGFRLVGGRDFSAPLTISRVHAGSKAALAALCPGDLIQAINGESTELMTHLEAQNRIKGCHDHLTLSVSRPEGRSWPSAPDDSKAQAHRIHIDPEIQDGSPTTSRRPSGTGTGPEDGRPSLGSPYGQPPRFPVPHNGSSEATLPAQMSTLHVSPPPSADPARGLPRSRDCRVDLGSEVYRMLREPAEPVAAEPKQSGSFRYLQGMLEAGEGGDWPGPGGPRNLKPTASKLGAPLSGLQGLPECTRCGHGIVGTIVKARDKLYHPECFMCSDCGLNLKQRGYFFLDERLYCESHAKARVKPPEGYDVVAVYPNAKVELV
Outline: as §1

[4] = target: T4, PDZ protein (GST-PDZ fusion) (Homo sapiens, UniProt Q9HD26); details: PDZ PIST, PDZ Domain 1
T4 construct: made in house; host or cells: E. coli (DH5alpha, BL21 or JM109)
Outline: as §1

[5] = target: T5, PDZ protein (GST-PDZ fusion) (Homo sapiens, UniProt Q9NSN8); details: PDZ Syntrophin gamma-1, PDZ Domain 1
T5 construct: made in house; host or cells: E. coli (DH5alpha, BL21 or JM109)
T5 sequence (Q9NSN8 1-517): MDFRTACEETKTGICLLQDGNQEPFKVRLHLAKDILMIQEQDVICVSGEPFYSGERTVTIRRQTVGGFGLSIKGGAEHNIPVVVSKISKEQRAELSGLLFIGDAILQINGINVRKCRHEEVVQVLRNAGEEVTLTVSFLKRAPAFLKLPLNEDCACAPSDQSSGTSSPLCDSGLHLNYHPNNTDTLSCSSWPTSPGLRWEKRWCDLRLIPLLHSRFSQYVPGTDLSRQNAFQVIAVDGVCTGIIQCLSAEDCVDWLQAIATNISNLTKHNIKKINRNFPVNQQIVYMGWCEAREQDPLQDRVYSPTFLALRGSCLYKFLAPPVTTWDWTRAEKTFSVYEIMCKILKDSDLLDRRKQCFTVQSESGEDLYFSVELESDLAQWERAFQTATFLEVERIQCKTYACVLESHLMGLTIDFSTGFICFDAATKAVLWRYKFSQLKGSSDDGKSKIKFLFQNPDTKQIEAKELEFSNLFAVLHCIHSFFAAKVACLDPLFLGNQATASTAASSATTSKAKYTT
Outline: as §1

Compound	Classification [1]	Classification [2]	Classification [3]	Classification [4]	Classification [5]
CSCC[C@H](NC(=O)[C@H](C)NC(=O)[C@H](CCCNC(=N)N)NC(=O)CNC(=O)[C@@H](NC(=O)[C@H](Cc1c[nH]c2ccccc12)NC(=O)[C@H](CCCNC(=N)N)NC(=O)CNC(=O)CCCC[C@@H]1SC[C@@H]2NC(=O)N[C@@H]21)[C@@H](C)O)C(=O)N[C@@H](CO)C(=O)N[C@@H](C)C(=O)N[C@@H](Cc1c[nH]c2ccccc12)C(=O)N[C@@H](CCCCN)C(=O)N1CCC[C@H]1C(=O)N[C@H](C(=O)N[C@@H](CCCNC(=N)N)C(=O)N[C@@H](CCCNC(=N)N)C(=O)N[C@@H](CCC(=O)O)C(=O)N[C@H](C(=O)N[C@@H](CCC(=O)O)C(=O)N[C@H](C(=O)O)C(C)C)[C@@H](C)O)[C@@H](C)O [HPV E6 #35 (modified)] (Biotin-GRWTGRAMSAWKPTRRETEV-OH; C-terminus assumed)	4 (A450 nm 3-4)	1 (A450 nm 0-1)	4 (A450 nm 3-4)	1 (A450 nm 0-1)	4 (A450 nm 3-4)
TQGFPGPATWRRISSLESEV	4 (A450 nm 3-4)	1 (A450 nm 0-1)	5 (A450 nm of 4 more than 2× repeated)		4 (A450 nm 3-4)
CC[C@H](C)[C@H](NC(=O)[C@H](CCC(N)=O)NC(=O)CCCC[C@@H]1SC[C@@H]2NC(=O)N[C@@H]21)C(=O)N[C@@H](CO)C(=O)N1CCC[C@H]1C(=O)NCC(=O)NCC(=O)N[C@@H](CC(C)C)C(=O)N[C@@H](CCC(=O)O)C(=O)N1CCC[C@H]1C(=O)N1CCC[C@H]1C(=O)N[C@@H](CO)C(=O)N[C@@H](CCC(=O)O)C(=O)N[C@@H](CCCCN)C(=O)N[C@@H](Cc1c[nH]cn1)C(=O)N[C@@H](Cc1ccccc1)C(=O)N[C@@H](CCCNC(=N)N)C(=O)N[C@@H](CCC(=O)O)C(=O)N[C@H](C(=O)N[C@@H](CCC(=O)O)C(=O)N[C@H](C(=O)O)C(C)C)[C@@H](C)O [Tax]	2 (A450 nm 1-2)		1 (A450 nm 0-1)		5 (A450 nm of 4 more than 2× repeated)
